Measurements from BindingDB's records for doi:10.1038/nchembio.2209 (Dana-Farber Cancer Institute, 2016).

Assays:
[1] = molecular target: T1, Bromodomain testis-specific protein [21-137] (Homo sapiens, UniProt Q58F21); assay: AlphaScreen BRD Binding Assay; conditions: pH 7.5; 25 °C
T1 construct: 21-137

[2] = molecular target: T2, Bromodomain-containing protein 4 [44-168] (Human, UniProt O60885); assay: AlphaScreen BRD Binding Assay; conditions: pH 7.5; 25 °C
T2 construct: 44-168

[3] = molecular target: T2, Bromodomain-containing protein 4 [44-168]; assay: BROMOscan Assay
[4] = molecular target: T3, Bromodomain-containing protein 4 [44-168,333-460] (Homo sapiens, UniProt O60885); assay: BROMOscan Assay
T3 construct: 44-168,333-460

[5] = molecular target: T4, Bromodomain testis-specific protein [21-137,251-382] (Homo sapiens, UniProt Q58F21); assay: BROMOscan Assay
T4 construct: 21-137,251-382

[6] = molecular target: T4, Bromodomain testis-specific protein [21-137,251-382]; assay: Bromodomains Assay for DiscoveRx Gene Symbol
[7] = molecular target: T1, Bromodomain testis-specific protein [21-137]; assay: Bromodomains Assay for DiscoveRx Gene Symbol
[8] = molecular target: T5, Bromodomain testis-specific protein [251-382] (Homo sapiens, UniProt Q58F21); assay: Bromodomains Assay for DiscoveRx Gene Symbol
T5 construct: 251-382

[9] = molecular target: T6, Bromodomain-containing protein 3 [24-144,306-416] (Homo sapiens, UniProt Q15059); assay: Bromodomains Assay for DiscoveRx Gene Symbol
T6 construct: 24-144,306-416

[10] = molecular target: T7, Bromodomain-containing protein 3 [24-144] (Homo sapiens, UniProt Q15059); assay: Bromodomains Assay for DiscoveRx Gene Symbol
T7 construct: 24-144

[11] = molecular target: T8, Bromodomain-containing protein 3 [306-416] (Homo sapiens, UniProt Q15059); assay: Bromodomains Assay for DiscoveRx Gene Symbol
T8 construct: 306-416

[12] = molecular target: T9, Bromodomain-containing protein 2 [71-194,348-455] (Homo sapiens, UniProt P25440); assay: Bromodomains Assay for DiscoveRx Gene Symbol
T9 construct: 71-194,348-455
T9 sequence (P25440 as listed by the source): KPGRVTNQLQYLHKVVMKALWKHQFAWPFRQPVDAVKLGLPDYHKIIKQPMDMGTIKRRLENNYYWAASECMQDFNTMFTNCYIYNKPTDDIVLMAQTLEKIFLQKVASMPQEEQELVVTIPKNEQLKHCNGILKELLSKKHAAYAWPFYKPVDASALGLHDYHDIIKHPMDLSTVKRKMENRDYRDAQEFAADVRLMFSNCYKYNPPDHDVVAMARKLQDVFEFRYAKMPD

T8 sequence (Q15059 306-416): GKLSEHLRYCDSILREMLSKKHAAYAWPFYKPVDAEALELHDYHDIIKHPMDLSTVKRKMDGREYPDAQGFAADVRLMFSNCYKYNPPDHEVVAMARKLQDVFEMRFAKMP
T7 sequence (Q15059 24-144): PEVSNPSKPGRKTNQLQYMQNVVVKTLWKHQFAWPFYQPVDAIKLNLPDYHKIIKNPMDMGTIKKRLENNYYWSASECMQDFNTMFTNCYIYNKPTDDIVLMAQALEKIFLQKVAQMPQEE
T6 sequence (Q15059 as listed by the source): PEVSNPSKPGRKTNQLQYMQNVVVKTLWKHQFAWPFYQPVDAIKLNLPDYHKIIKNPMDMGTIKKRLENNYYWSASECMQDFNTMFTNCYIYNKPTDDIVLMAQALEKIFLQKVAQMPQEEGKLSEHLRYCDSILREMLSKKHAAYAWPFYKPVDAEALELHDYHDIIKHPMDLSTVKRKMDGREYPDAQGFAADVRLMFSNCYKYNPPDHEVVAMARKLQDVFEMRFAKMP

Structure (SMILES) | IC50 [1] | IC50 [2] | further results
COC(=O)CC1N=C(c2ccc(Cl)cc2)c2c(sc(C(=O)NCCNC(=O)Cn3c(=O)n([C@H](C)c4ccccn4)c4c5cc(OC)c(-c6c(C)noc6C)cc5ncc43)c2C)-n2c(C)nnc21 (stereo partly drawn) [2S+IBET-PEG0 (23)] | 596 nM | 439 nM | 
COC(=O)CC1N=C(c2ccc(Cl)cc2)c2c(sc(C(=O)NCCOCCNC(=O)Cn3c(=O)n([C@H](C)c4ccccn4)c4c5cc(OC)c(-c6c(C)noc6C)cc5ncc43)c2C)-n2c(C)nnc21 (stereo partly drawn) [2S+IBET-PEG1 (24)] | 40.3 nM | 18.1 nM | 
COC(=O)CC1N=C(c2ccc(Cl)cc2)c2c(sc(C(=O)NCCOCCOCCNC(=O)Cn3c(=O)n([C@H](C)c4ccccn4)c4c5cc(OC)c(-c6c(C)noc6C)cc5ncc43)c2C)-n2c(C)nnc21 (stereo partly drawn) [2S+IBET-PEG2 (25)] | 23.2 nM | 5.8 nM | 
COC(=O)CC1N=C(c2ccc(Cl)cc2)c2c(sc(C(=O)NCCOCCOCCOCCNC(=O)Cn3c(=O)n([C@H](C)c4ccccn4)c4c5cc(OC)c(-c6c(C)noc6C)cc5ncc43)c2C)-n2c(C)nnc21 (stereo partly drawn) [2S+IBET-PEG3 (26)] | 31.7 nM | 11.3 nM | 
COC(=O)CC1N=C(c2ccc(Cl)cc2)c2c(sc(C(=O)NCCOCCOCCOCCOCCNC(=O)Cn3c(=O)n([C@H](C)c4ccccn4)c4c5cc(OC)c(-c6c(C)noc6C)cc5ncc43)c2C)-n2c(C)nnc21 (stereo partly drawn) [2S+IBET-PEG4 (27)] | 21.7 nM | 10.3 nM | 
COC(=O)CC1N=C(c2ccc(Cl)cc2)c2c(sc(C(=O)NCCOCCOCCOCCOCCOCCOCCOCCNC(=O)Cn3c(=O)n([C@H](C)c4ccccn4)c4c5cc(OC)c(-c6c(C)noc6C)cc5ncc43)c2C)-n2c(C)nnc21 (stereo partly drawn) [2S+IBET-PEG7 (28)] | 13.2 nM | 17.4 nM | 
COc1cc2c(cc1-c1c(C)noc1C)ncc1c2n([C@H](C)c2ccccn2)c(=O)n1CC(=O)NCCNC(=O)C[C@@H]1N=C(c2ccc(Cl)cc2)c2c(sc(C)c2C)-n2c(C)nnc21 [6S+IBET-PEG0 (17)] | 148 nM | 404 nM | 
COc1cc2c(cc1-c1c(C)noc1C)ncc1c2n([C@H](C)c2ccccn2)c(=O)n1CC(=O)NCCOCCNC(=O)C[C@@H]1N=C(c2ccc(Cl)cc2)c2c(sc(C)c2C)-n2c(C)nnc21 [6S+IBET-PEG1 (18)] | 12.1 nM | 54 nM | 
COC(=O)C[C@@H]1N=C(c2ccc(Cl)cc2)c2c(sc(C(=O)NCCOCCNC(=O)c3sc4c(c3C)C(c3ccc(Cl)cc3)=N[C@H](CC(=O)OC)c3nnc(C)n3-4)c2C)-n2c(C)nnc21 [(2S+2S)-PEG1 (5)] |  | 1.17 nM | 
COc1cc2c(cc1-c1c(C)noc1C)ncc1c2n([C@H](C)c2ccccn2)c(=O)n1CC(=O)NCCNC(=O)Cn1c(=O)n([C@@H](C)c2ccccn2)c2c3cc(OC)c(-c4c(C)noc4C)cc3ncc21 [IBETx2-PEG0 (29)] | 203 nM | 209 nM | 
COc1cc2c(cc1-c1c(C)noc1C)ncc1c2n([C@H](C)c2ccccn2)c(=O)n1CC(=O)NCCOCCNC(=O)Cn1c(=O)n([C@@H](C)c2ccccn2)c2c3cc(OC)c(-c4c(C)noc4C)cc3ncc21 [IBETx2-PEG1 (30)] | 203 nM | 108 nM | 
COc1cc2c(cc1-c1c(C)noc1C)ncc1c2n([C@H](C)c2ccccn2)c(=O)n1CC(=O)NCCOCCOCCNC(=O)Cn1c(=O)n([C@@H](C)c2ccccn2)c2c3cc(OC)c(-c4c(C)noc4C)cc3ncc21 [IBETx2-PEG2 (31)] | 123 nM | 117 nM | 
COc1cc2c(cc1-c1c(C)noc1C)ncc1c2n([C@H](C)c2ccccn2)c(=O)n1CC(=O)NCCOCCOCCOCCNC(=O)Cn1c(=O)n([C@@H](C)c2ccccn2)c2c3cc(OC)c(-c4c(C)noc4C)cc3ncc21 [IBETx2-PEG3 (32)] | 64.6 nM | 53.4 nM | 
COc1cc2c(cc1-c1c(C)noc1C)ncc1c2n([C@H](C)c2ccccn2)c(=O)n1CC(=O)NCCOCCOCCOCCOCCNC(=O)Cn1c(=O)n([C@@H](C)c2ccccn2)c2c3cc(OC)c(-c4c(C)noc4C)cc3ncc21 [IBETx2-PEG4 (33)] | 60.2 nM | 73.7 nM | 
COc1cc2c(cc1-c1c(C)noc1C)ncc1c2n([C@H](C)c2ccccn2)c(=O)n1CC(=O)NCCOCCOCCOCCOCCOCCOCCOCCNC(=O)Cn1c(=O)n([C@@H](C)c2ccccn2)c2c3cc(OC)c(-c4c(C)noc4C)cc3ncc21 [IBETx2-PEG7 (34)] | 13.6 nM | 30.5 nM | 
Cc1sc2c(c1C)C(c1ccc(Cl)cc1)=NC(CC(=O)NCCOCCOCCOCCOCCOCCOCCOCCNC(=O)C[C@@H]1N=C(c3ccc(Cl)cc3)c3c(sc(C)c3C)-n3c(C)nnc31)c1nnc(C)n1-2 (stereo partly drawn) [MTI (35)] |  |  | Ki [12]: 0.024 nM; Ki [11]: 0.07 nM

Now from value to compound, other results behind:

IC50 [1] | IC50 [2] | Structure (SMILES) | further results
10 nM | 58.6 nM | COc1cc2c(cc1-c1c(C)noc1C)ncc1c2n([C@H](C)c2ccccn2)c(=O)n1CC(=O)NCCOCCOCCNC(=O)C[C@@H]1N=C(c2ccc(Cl)cc2)c2c(sc(C)c2C)-n2c(C)nnc21 [6S+IBET-PEG2 (19)] | Kd [3]: 0.062 nM
5.78 nM | 27.4 nM | COc1cc2c(cc1-c1c(C)noc1C)ncc1c2n([C@H](C)c2ccccn2)c(=O)n1CC(=O)NCCOCCOCCOCCNC(=O)C[C@@H]1N=C(c2ccc(Cl)cc2)c2c(sc(C)c2C)-n2c(C)nnc21 [6S+IBET-PEG3 (20)] | 
6.2 nM | 29.5 nM | COc1cc2c(cc1-c1c(C)noc1C)ncc1c2n([C@H](C)c2ccccn2)c(=O)n1CC(=O)NCCOCCOCCOCCOCCNC(=O)C[C@@H]1N=C(c2ccc(Cl)cc2)c2c(sc(C)c2C)-n2c(C)nnc21 [6S+IBET-PEG4 (21)] | 
6.1 nM | 11.5 nM | COc1cc2c(cc1-c1c(C)noc1C)ncc1c2n([C@H](C)c2ccccn2)c(=O)n1CC(=O)NCCOCCOCCOCCOCCOCCOCCOCCNC(=O)C[C@@H]1N=C(c2ccc(Cl)cc2)c2c(sc(C)c2C)-n2c(C)nnc21 [6S+IBET-PEG7 (22)] | 
2.36 nM | 3.58 nM | COC(=O)C[C@@H]1N=C(c2ccc(Cl)cc2)c2c(sc(C(=O)NCCNC(=O)C[C@@H]3N=C(c4ccc(Cl)cc4)c4c(sc(C)c4C)-n4c(C)nnc43)c2C)-n2c(C)nnc21 [(6S+2S)-PEG0 (6)] | Kd [4]: 0.047 nM; Kd [3]: 0.034 nM
0.574 nM |  | COC(=O)C[C@@H]1N=C(c2ccc(Cl)cc2)c2c(sc(C(=O)NCCOCCNC(=O)C[C@@H]3N=C(c4ccc(Cl)cc4)c4c(sc(C)c4C)-n4c(C)nnc43)c2C)-n2c(C)nnc21 [(6S+2S)-PEG1 (7)] | Kd [5]: 0.039 nM; Ki [6]: 0.42 nM; Ki [7]: 0.29 nM; Kd [8]: 0.066 nM; Ki [9]: 0.11 nM; Ki [10]: 0.13 nM; Ki [11]: 0.0027 nM
1.84 nM | 1.28 nM | COC(=O)C[C@@H]1N=C(c2ccc(Cl)cc2)c2c(sc(C(=O)NCCOCCOCCNC(=O)C[C@@H]3N=C(c4ccc(Cl)cc4)c4c(sc(C)c4C)-n4c(C)nnc43)c2C)-n2c(C)nnc21 [(6S+2S)-PEG2 (8)] | Kd [4]: 0.0091 nM; Kd [3]: 0.014 nM
0.878 nM | 2.25 nM | COC(=O)C[C@@H]1N=C(c2ccc(Cl)cc2)c2c(sc(C(=O)NCCOCCOCCOCCNC(=O)C[C@@H]3N=C(c4ccc(Cl)cc4)c4c(sc(C)c4C)-n4c(C)nnc43)c2C)-n2c(C)nnc21 [(6S+2S)-PEG3 (9)] | Kd [4]: 0.0075 nM; Kd [3]: 0.029 nM
1.09 nM | 2.95 nM | COC(=O)C[C@@H]1N=C(c2ccc(Cl)cc2)c2c(sc(C(=O)NCCOCCOCCOCCOCCNC(=O)C[C@@H]3N=C(c4ccc(Cl)cc4)c4c(sc(C)c4C)-n4c(C)nnc43)c2C)-n2c(C)nnc21 [(6S+2S)-PEG4 (10)] | Kd [4]: 0.0066 nM; Kd [3]: 0.023 nM
1.59 nM | 0.789 nM | COC(=O)C[C@@H]1N=C(c2ccc(Cl)cc2)c2c(sc(C(=O)NCCOCCOCCOCCOCCOCCOCCOCCNC(=O)C[C@@H]3N=C(c4ccc(Cl)cc4)c4c(sc(C)c4C)-n4c(C)nnc43)c2C)-n2c(C)nnc21 [(6S+2S)-PEG7 (11)] | Kd [4]: 0.0059 nM; Kd [3]: 0.026 nM
